Values joined by “and” are separate entries in the source; they are usually repeats but may differ in a detail not shown here. Identical values can stand only once. Numbers after ± are expanded uncertainties. One block for each compound: values may come before it.
Columns and labels:
[1] = 298.15 K, 101 kPa, Liquid; for electrical conductivity: Alternating current cell with electrodes; for mass density: Vibrating tube method
[2] = xn = mol fraction of the nth substance listed; conditions: 298.15 K, 101 kPa, Liquid; for electrical conductivity: Alternating current cell with electrodes; for mass density: Vibrating tube method

Structure (SMILES): CCCCn1cc[n+](C)c1.F[B-](F)(F)F [1-butyl-3-methylimidazolium tetrafluoroborate]
electrical conductivity [1]: 0.353 ± 0.004 S/m | mass density [1]: 1202.19 ± 7.9 kg/m3

Structure (SMILES): CCn1cc[n+](C)c1.F[B-](F)(F)F [1-ethyl-3-methylimidazolium tetrafluoroborate]
electrical conductivity [1]: 1.55 ± 0.016 S/m | mass density [1]: 1283.7 ± 1.5 kg/m3 and 1283.7 ± 9 kg/m3 and 1280.38 ± 8.9 kg/m3

Structure (SMILES): CCCCCCn1cc[n+](C)c1.F[B-](F)(F)F [1-hexyl-3-methylimidazolium tetrafluoroborate]
electrical conductivity [1]: 0.1228 ± 0.0012 S/m | mass density [1]: 1146.34 ± 7.1 kg/m3

Structure (SMILES): CCCCCCn1cc[n+](C)c1.F[B-](F)(F)F [1-hexyl-3-methylimidazolium tetrafluoroborate] + O
electrical conductivity ([2]; x1 = 0.0007116): 0.327 ± 0.003 S/m | electrical conductivity ([2]; x1 = 0.001428): 0.567 ± 0.006 S/m | electrical conductivity ([2]; x1 = 0.001482): 0.608 ± 0.006 S/m | electrical conductivity ([2]; x1 = 0.002238): 0.854 ± 0.009 S/m | electrical conductivity ([2]; x1 = 0.00296): 1.05 S/m and 1.06 S/m | electrical conductivity ([2]; x1 = 0.003642): 1.225 ± 0.012 S/m | electrical conductivity ([2]; x1 = 0.00447): 1.411 ± 0.014 S/m | electrical conductivity ([2]; x1 = 0.004747): 1.47 ± 0.015 S/m | electrical conductivity ([2]; x1 = 0.2816): 2.03 ± 0.02 S/m | electrical conductivity ([2]; x1 = 0.314): 1.829 ± 0.018 S/m | electrical conductivity ([2]; x1 = 0.3441): 1.66 ± 0.017 S/m | electrical conductivity ([2]; x1 = 0.3813): 1.46 ± 0.015 S/m | electrical conductivity ([2]; x1 = 0.4148): 1.29 ± 0.013 S/m | electrical conductivity ([2]; x1 = 0.5139): 0.898 ± 0.009 S/m | electrical conductivity ([2]; x1 = 0.5161): 0.885 ± 0.009 S/m | electrical conductivity ([2]; x1 = 0.7069): 0.417 ± 0.004 S/m | electrical conductivity ([2]; x1 = 1): 0.1228 ± 0.0012 S/m | mass density ([2]; x1 = 0.0007116): 998.06 ± 0.12 kg/m3 | mass density ([2]; x1 = 0.001428): 999.52 ± 0.12 kg/m3 | mass density ([2]; x1 = 0.001482): 999.64 ± 0.12 kg/m3 | mass density ([2]; x1 = 0.002238): 1001.24 ± 0.12 kg/m3 | mass density ([2]; x1 = 0.00296): 1002.63 ± 0.12 kg/m3 and 1002.7 ± 0.12 kg/m3 | mass density ([2]; x1 = 0.003642): 1003.94 ± 0.12 kg/m3 | mass density ([2]; x1 = 0.00447): 1005.24 ± 0.12 kg/m3 | mass density ([2]; x1 = 0.004747): 1005.61 ± 0.12 kg/m3 | mass density ([2]; x1 = 0.2816): 1113.63 ± 0.62 kg/m3 | mass density ([2]; x1 = 0.314): 1116.76 ± 0.75 kg/m3 | mass density ([2]; x1 = 0.3441): 1119.43 ± 0.88 kg/m3 | mass density ([2]; x1 = 0.3813): 1122.43 ± 1.1 kg/m3 | mass density ([2]; x1 = 0.4148): 1124.75 ± 1.2 kg/m3 | mass density ([2]; x1 = 0.5139): 1130.58 ± 1.9 kg/m3 | mass density ([2]; x1 = 0.5161): 1130.73 ± 1.9 kg/m3 | mass density ([2]; x1 = 0.7069): 1138.7 ± 3.5 kg/m3 | mass density ([2]; x1 = 1): 1146.34 ± 7.1 kg/m3

More lines, now with the values ahead:

electrical conductivity [1]: 1.139 ± 0.011 S/m | mass density [1]: 1059.12 ± 6.1 kg/m3
Structure (SMILES): CCCCn1cc[n+](C)c1.N#CN=C=[N-] [1-butyl-3-methylimidazolium dicyanamide]

electrical conductivity [1]: 0.147 ± 0.0015 S/m | mass density [1]: 1368.32 ± 10 kg/m3
Structure (SMILES): CCCCn1cc[n+](C)c1.F[P-](F)(F)(F)(F)F [1-butyl-3-methylimidazolium hexafluorophosphate]

electrical conductivity ([2]; x2 = 0.02318): 0.537 ± 0.005 S/m | electrical conductivity ([2]; x2 = 0.04836): 0.873 ± 0.009 S/m | electrical conductivity ([2]; x2 = 0.1028): 1.23 ± 0.012 S/m | electrical conductivity ([2]; x2 = 0.1601): 1.346 ± 0.013 S/m | electrical conductivity ([2]; x2 = 0.2277): 1.332 ± 0.013 S/m | electrical conductivity ([2]; x2 = 0.3056): 1.229 ± 0.012 S/m | electrical conductivity ([2]; x2 = 0.407): 1.05 ± 0.011 S/m | electrical conductivity ([2]; x2 = 0.5126): 0.875 ± 0.009 S/m | electrical conductivity ([2]; x2 = 0.6192): 0.715 ± 0.007 S/m | electrical conductivity ([2]; x2 = 0.7173): 0.593 ± 0.006 S/m | electrical conductivity ([2]; x2 = 0.8497): 0.463 ± 0.005 S/m | mass density ([2]; x2 = 0.02318): 1201.32 ± 0.16 kg/m3 | mass density ([2]; x2 = 0.04836): 1202.51 ± 0.17 kg/m3 | mass density ([2]; x2 = 0.1028): 1204.3 ± 0.22 kg/m3 | mass density ([2]; x2 = 0.1601): 1205.43 ± 0.32 kg/m3 | mass density ([2]; x2 = 0.2277): 1206.17 ± 0.52 kg/m3 | mass density ([2]; x2 = 0.3056): 1206.51 ± 0.83 kg/m3 | mass density ([2]; x2 = 0.407): 1206.44 ± 1.4 kg/m3 | mass density ([2]; x2 = 0.5126): 1206.03 ± 2.1 kg/m3 | mass density ([2]; x2 = 0.6192): 1205.48 ± 3 kg/m3 | mass density ([2]; x2 = 0.7173): 1204.39 ± 4 kg/m3 | mass density ([2]; x2 = 0.8497): 1203.39 ± 5.7 kg/m3
Structure (SMILES): CC1COC(=O)O1 (centres undefined) [4-methyl-1,3-dioxolan-2-one] + CCCCn1cc[n+](C)c1.F[B-](F)(F)F

electrical conductivity ([2]; x2 = 0.00755): 0.0602 ± 0.0006 S/m | electrical conductivity ([2]; x2 = 0.01921): 0.2 ± 0.002 S/m | electrical conductivity ([2]; x2 = 0.02714): 0.31 ± 0.003 S/m | electrical conductivity ([2]; x2 = 0.03878): 0.436 ± 0.004 S/m | electrical conductivity ([2]; x2 = 0.07987): 0.98 ± 0.01 S/m | electrical conductivity ([2]; x2 = 0.1395): 1.427 ± 0.014 S/m | electrical conductivity ([2]; x2 = 0.194): 1.55 ± 0.016 S/m | electrical conductivity ([2]; x2 = 0.2674): 1.607 ± 0.016 S/m | electrical conductivity ([2]; x2 = 0.3355): 1.53 ± 0.015 S/m | electrical conductivity ([2]; x2 = 0.4787): 1.209 ± 0.012 S/m | electrical conductivity ([2]; x2 = 0.6019): 0.93 ± 0.009 S/m | electrical conductivity ([2]; x2 = 0.773): 0.62 ± 0.006 S/m | electrical conductivity ([2]; x2 = 0.8496): 0.511 ± 0.005 S/m | electrical conductivity ([2]; x2 = 0.9107): 0.441 ± 0.004 S/m | mass density ([2]; x2 = 0.00755): 1316.6 ± 0.18 kg/m3 | mass density ([2]; x2 = 0.01921): 1314.92 ± 0.19 kg/m3 | mass density ([2]; x2 = 0.02714): 1313.4 ± 0.19 kg/m3 | mass density ([2]; x2 = 0.03878): 1311.8 ± 0.19 kg/m3 | mass density ([2]; x2 = 0.07987): 1304.97 ± 0.22 kg/m3 | mass density ([2]; x2 = 0.1395): 1294.06 ± 0.32 kg/m3 | mass density ([2]; x2 = 0.194): 1284.29 ± 0.46 kg/m3 | mass density ([2]; x2 = 0.2674): 1271.96 ± 0.72 kg/m3 | mass density ([2]; x2 = 0.3355): 1261.43 ± 1 kg/m3 | mass density ([2]; x2 = 0.4787): 1242.95 ± 1.9 kg/m3 | mass density ([2]; x2 = 0.6019): 1230.33 ± 3 kg/m3 | mass density ([2]; x2 = 0.773): 1216.18 ± 4.8 kg/m3 | mass density ([2]; x2 = 0.8496): 1211.19 ± 5.7 kg/m3 | mass density ([2]; x2 = 0.9107): 1207.46 ± 6.5 kg/m3
Structure (SMILES): ClCCl [dichloromethane] + CCCCn1cc[n+](C)c1.F[B-](F)(F)F

From the NIST ThermoML archive (doi:10.1021/je800468h)
